Source: patent US20170158702A1, “MULTIVALENT RAS BINDING COMPOUNDS” (KYRAS THERAPEUTICS, INC., priority 2015, published 2017)
Where a name gives a salt, the structure may show the parent alone.

Columns and labels:
Type in all cases: cell-based
NCI-H460 = assay: Viability assay with NCI-H460 (CellTiter-Glo cytotoxicity assay, 72 h); settings: NCI-H460 cell line, 72 h after compounds addition
Procedure, shortened: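 NCI-H460 cells, RPMI 1640 + 10% FBS, seeded 1200/well and adhered overnight, then exposed to compounds at 9 points, 2-fold dilution, in triplicate, 0.5% DMSO final. Cellular ATP measured by CellTiter-Glo luminescence 72 h after addition.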

MIA PaCa-2 = assay: Viability assay with MIA PaCa-2; settings: MIA PaCa-2, viability assay per Example 57
Procedure, shortened: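 MIA PaCa-2 cells were seeded at 1200/well, allowed to adhere overnight, then treated in triplicate with 9-point 2-fold compound dilutions at 0.5% final DMSO. Viability was measured as cellular ATP by CellTiter-Glo luminescence 72 h after compound addition.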

HT-29 = assay: Viability assay with HT-29; settings: HT-29, viability assay per Example 57
Method: NCI-H460 (Epithelial lung tissue; carcinoma; large cell lung cancer) were cultured in RPMI Medium 1640 (Invitrogen-22400105) supplemented with 10% fetal bovine serum (FBS; Invitrogen-10099141). All the cell lines were maintained in a humidified incubator at 37° C. with 5% CO2. Cell culture media and supplements were purchased from Invitrogen, and tissue culture flasks were purchased from Corning, 96-well plates were purchased from Greiner. CellTiter-Glo Luminescent Cell Viability Assay kits were purchased from Promega (Promega-G7573), cells counter Vi-Cell was purchased from Beckman, D300e digital dispenser was purchased from Tecan, detection instrument Envision was purchased from PerkinElmer.
Paclitaxel was purchased from SELLECK, test compounds, such as any one of the compounds disclosed herein, attained solubility in DMSO and when diluted into culture media. DMSO, solutions containing the test compounds, and culture media were warmed to 37° C. or room temperature for the solution preparation and dilutions.
NCI-H460 Cell line were seeded in 96-well plates (1200/well) and allowed to adhere to overnight (100 uL/well), for drug treatments with 2 fold dilution, 9 dose points, triplicates or vehicle control, compound stock solutions were prepared in DMSO and use D300e digital dispenser to add compounds to the wells to give the indicated final drug concentrations. Final DMSO concentration was 0.5%. Cellular ATP concentrations were assessed by using the CellTiter-Glo Cell Viability Assay as per the manufacturer's instructions 72 h after compounds addition. Additional cells lines were assayed with any one of the compounds disclosed herein according to the procedures described for the viability assay with NCI-H460.
A viability assay with HT-29 (Colorectal adenocarcinoma) was performed with compounds listed in Table 18 according to the procedures described in Example 57.

EC50 (MIA PaCa-2) | EC50 (HT-29) | SMILES | EC50 (NCI-H460)
≤ 5 µM | ≤ 5 µM | NCCCn1cc(-c2ccc(OC(F)(F)F)cc2)c2cc(CN3CCN(CCc4ccccc4Cl)CC3)ccc21 [C140; HCl] | ≤ 5 µM
≤ 5 µM | ≤ 5 µM | FC(F)(F)Oc1ccc(-c2cn(CC3CNCCO3)c3ccc(CN4CCN(Cc5ccccc5Cl)CC4)cc23)cc1 (stereo not drawn) [C231; HCl] | ≤ 5 µM
≤ 5 µM | ≤ 5 µM | FC(F)(F)Oc1ccc(-c2cn(CC3CCNCC3)c3ccc(CN4CCN(Cc5ccccc5Cl)CC4)cc23)cc1 [C171; HCl] | ≤ 5 µM
≤ 5 µM | ≤ 5 µM | Cc1ccc(CN2CCN(Cc3ccc4c(c3)c(-c3ccc(OC(F)(F)F)cc3)cn4CCCN)CC2)cc1 [C146; HCl] | ≤ 5 µM
≤ 5 µM | ≤ 5 µM | COc1ccc(-c2cn(CCCCN)c3ccc(CN4CC5CCC(C4)N5Cc4ccccc4Cl)cc23)cc1 [C133; HCl] | ≤ 5 µM
≤ 5 µM | ≤ 5 µM | COc1ccc(-c2cn(CCCN)c3ccc(CN4CCN(Cc5ccccc5Cl)CC4)cc23)c(CN(C)C)c1 [C284; HCl] | ≤ 5 µM
≤ 5 µM | ≤ 5 µM | COc1cccc(CN(C)CCN(C)Cc2ccc3c(c2)c(-c2ccc(OC(F)(F)F)cc2CN)cn3CCCN)c1 [C296; HCl] | ≤ 5 µM
≤ 5 µM | ≤ 5 µM | CCC1CCN(Cc2ccc3c(c2)c(-c2ccc(OC(F)(F)F)cc2CN)cn3CCCN)CC1 [C261; HCl] | ≤ 5 µM
≤ 5 µM | ≤ 5 µM | NCCCn1cc(-c2ccc(OC(F)(F)F)cc2)c2cc(NC3CCN(Cc4ccccc4Cl)CC3)ccc21 [C129; HCl] | ≤ 5 µM
≤ 5 µM | ≤ 5 µM | COc1cccc(CC2(CO)CCN(Cc3ccc4c(c3)c(-c3ccc(OC(F)(F)F)cc3CN)cn4CCCN)CC2)c1 [C294; HCl] | ≤ 5 µM
≤ 5 µM | ≤ 5 µM | NCCCn1cc(-c2ccc(OC(F)(F)F)cc2)c2cc(CN3CCN(Cc4ccn[nH]4)CC3)ccc21 [C187; HCl] | ≤ 5 µM
5 to 10 µM | ≤ 5 µM | COc1ccccc1CN1CCN(Cc2ccc3c(c2)c2ccccc2n3CCCN)CC1 [C268; HCl] | 5 to 10 µM
5 to 10 µM | ≤ 5 µM | CC1(C)CCN(Cc2ccc3c(c2)c(-c2ccc(OC(F)(F)F)cc2CN)cn3CCCN)CC1 [C272; HCl] | ≤ 5 µM
5 to 10 µM | 5 to 10 µM | NCCCn1cc(-c2cn[nH]c2)c2cc(CN3CCN(Cc4ccccc4Cl)CC3)ccc21 [C192; HCl] | 5 to 10 µM
≤ 5 µM | ≤ 5 µM | NCCCn1cc(-c2ccc(OC(F)(F)F)cc2)c2cc(CN3CCC(O)CC3)ccc21 [C295; HCl] | ≤ 5 µM
5 to 10 µM | 5 to 10 µM | NCCCn1cc(-c2ccccc2C(N)=O)c2cc(CN3CCN(Cc4ccccc4Cl)CC3)ccc21 [C185; HCl] | 5 to 10 µM
≤ 5 µM | 5 to 10 µM | CCC1CCN(Cc2ccc3c(c2)c(-c2ccc(OC)cc2CN)cn3CCCN)CC1 [C255; HCl] | 5 to 10 µM

EC50 (MIA PaCa-2) | EC50 (HT-29) | SMILES | EC50 (NCI-H460)
≤ 5 µM | ≤ 5 µM | NCCCn1cc(-c2ccc(OC(F)(F)F)cc2)c2cc(CN3CCC(Oc4ccccc4Cl)CC3)ccc21 [C215; HCl] | ≤ 5 µM
≤ 5 µM | ≤ 5 µM | NCCCn1cc(-c2ccc(OC(F)(F)F)cc2CN)c2cc(CN3CCC(Cc4ccccc4Cl)CC3)ccc21 [C221; HCl] | ≤ 5 µM
5 to 10 µM | 5 to 10 µM | NCCCn1cc(-c2ccc(OC(F)(F)F)cc2)c2c(CN3CCN(Cc4ccc(OC(F)(F)F)cc4)CC3)cccc21 [C186; HCl] | 5 to 10 µM
≤ 5 µM | ≤ 5 µM | NCCCn1cc(-c2ccc(OC(F)(F)F)cc2)c2cc(CN3CCC(Oc4cccc(Cl)c4)CC3)ccc21 [C236; HCl] | ≤ 5 µM
≤ 5 µM | ≤ 5 µM | NC1(C(=O)NCCCn2nc(-c3ccc(OC(F)(F)F)cc3)c3cc(CN4CCN(Cc5ccccc5Cl)CC4)ccc32)CCNCC1 [C201; HCl] | ≤ 5 µM
≤ 5 µM | ≤ 5 µM | NCc1cc(OC(F)(F)F)ccc1-c1cn(CC2CCNCC2)c2ccc(CN3CCN(Cc4ccccc4Cl)CC3)cc12 [C237; HCl] | ≤ 5 µM
≤ 5 µM | ≤ 5 µM | FC(F)(F)Oc1ccc(-c2cn(CC3CCNCC3)c3ccc(CN4CCC(Cc5ccccc5Cl)CC4)cc23)cc1 [C228; HCl] | ≤ 5 µM
≤ 5 µM | ≤ 5 µM | CC1CCN(Cc2ccc3c(c2)c(-c2ccc(OC(F)(F)F)cc2CN)cn3CCCN)CC1 [C257; HCl] | ≤ 5 µM
5 to 10 µM | 5 to 10 µM | NCCCn1cc(-c2c(F)cccc2C(N)=O)c2cc(CN3CCN(Cc4ccccc4Cl)CC3)ccc21 [C289; HCl] | 5 to 10 µM
≤ 5 µM | ≤ 5 µM | NCCCn1cc(-c2ccc(OC(F)(F)F)cc2CN)c2cc(CN3CCC(Nc4ccccc4Cl)CC3)ccc21 [C241; HCl] | ≤ 5 µM
≤ 5 µM | ≤ 5 µM | NCCCn1cc(-c2ccc(OC(F)(F)F)cc2)c2cc(CN3CCC(Nc4ccc(Cl)cc4)CC3)ccc21 [C210; HCl] | ≤ 5 µM
≤ 5 µM | ≤ 5 µM | CC(=O)NCc1cc(OC(F)(F)F)ccc1-c1cn(CCCN)c2ccc(CN3CCN(Cc4ccccc4Cl)CC3)cc12 [C271; HCl] | ≤ 5 µM
5 to 10 µM | 5 to 10 µM | CCC1CCN(Cc2ccc3c(c2)c(-c2ccc(C)cc2CN)cn3CCCN)CC1 [C256; HCl] | 5 to 10 µM
≤ 5 µM | ≤ 5 µM | NCCCn1cc(-c2ccc(OC(F)(F)F)cc2CN)c2cc(CN3CCC4(CCN(Cc5ccccc5Cl)CC4)C3)ccc21 [C250; HCl] | ≤ 5 µM
≤ 5 µM | ≤ 5 µM | COc1ccc(-c2cn(CCCN)c3ccc(CN4CCN(Cc5ccccc5Cl)CC4)cc23)nc1 [C196; HCl] | ≤ 5 µM
≤ 5 µM | ≤ 5 µM | NCCCn1cc(-c2ccc(OC(F)(F)F)cc2)c2cc(CN3CCC(CC(F)(F)F)CC3)ccc21 [C130; HCl] | ≤ 5 µM

SMILES | EC50 (MIA PaCa-2) | EC50 (HT-29) | EC50 (NCI-H460)
Nc1ccc(Cn2cc(-c3ccc(OC(F)(F)F)cc3)c3cc(CN4CCN(Cc5ccccc5Cl)CC4)ccc32)cc1 [C220; Formic Acid] | 5 to 10 µM | 5 to 10 µM | 5 to 10 µM
NCCCn1cc(-c2ccc(OC(F)(F)F)cc2)c2cc(CN3CCC(Nc4cccc(Cl)c4)CC3)ccc21 [C214; Formic Acid] | ≤ 5 µM | ≤ 5 µM | ≤ 5 µM
NCCCn1cc(-c2ccc(OC(F)(F)F)cc2CN)c2cc(S(=O)(=O)N3CCC(Nc4cccc(Cl)c4)CC3)ccc21 [C263; Formic Acid] | ≤ 5 µM | 5 to 10 µM | ≤ 5 µM
NCCCn1cc(-c2ccc(OC(F)(F)F)cc2CN)c2cc(CN3CCNC(=O)C3)ccc21 [C258; Formic Acid] | 5 to 10 µM | 5 to 10 µM | 5 to 10 µM
NCCCn1cc(-c2ccc(CO)cc2)c2cc(CN3CCN(Cc4ccccc4Cl)CC3)ccc21 [C142; Formic Acid] | 5 to 10 µM | 5 to 10 µM | ≤ 5 µM
NCc1cccc(-n2cc(-c3ccc(OC(F)(F)F)cc3)c3cc(CN4CCN(Cc5ccccc5Cl)CC4)ccc32)c1 [C150; Formic acid] | ≤ 5 µM | ≤ 5 µM | ≤ 5 µM
